Data taken from US11440913B2, “Aminoimidazopyridazines as kinase inhibitors” (BRISTOL-MYERS SQUIBB COMPANY, priority 2017, dated 2022).
pIC50: −log10 of the molar value. Counter-ions that a name gives are not always drawn. Like-named read-outs stand apart in the source and are kept apart here.

Experiments:
[1] = tested on: MLKL phosphorylation in HT29-L23 human colorectal adenocarcinoma cells; test: MLKL Phosphorylation High-Content Assay; type: cell-based; settings: 6 h, necroptosis induced with TNFα, SMAC mimetic and Z-VAD, read-out: pMLKL (IC50)
Method in brief: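 HT29-L23 cells pretreated 30 min at 37 °C with compound (6.25 to 0.106 μM final), then necroptosis induced with TNFα 35 ng/mL, SMAC mimetic 700 nM and Z-VAD 140 nM for 6 h. Fixed cells immunostained for MLKL pS358 and imaged; IC50 and Ymax from 4-parameter logistic fit.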

[2] = molecular target: His-GST-TVMV-hRIPK1(1-324) (Homo sapiens (Human), UniProt Q13546); test: RIPK1 HTRF Binding Assay; settings: HTRF binding, 1 h at rt; read-out: RIPK1 (IC50)
Sequence of His-GST-TVMV-hRIPK1(1-324) (Q13546 1-324): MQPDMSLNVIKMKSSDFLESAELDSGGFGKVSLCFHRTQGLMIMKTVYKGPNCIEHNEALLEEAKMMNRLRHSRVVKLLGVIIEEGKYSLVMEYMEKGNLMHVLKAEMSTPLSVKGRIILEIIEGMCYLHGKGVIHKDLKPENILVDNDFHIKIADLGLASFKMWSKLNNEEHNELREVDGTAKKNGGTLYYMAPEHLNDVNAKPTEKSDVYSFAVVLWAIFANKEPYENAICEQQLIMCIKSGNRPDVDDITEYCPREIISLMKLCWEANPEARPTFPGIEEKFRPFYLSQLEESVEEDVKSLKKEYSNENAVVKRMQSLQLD
Method in brief: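 HTRF probe-displacement binding: 1 nM His-GST-TVMV-hRIPK1(1-324) (baculovirus construct), 90.6 nM probe, 0.2 nM anti-GST-Tb in 20 mM HEPES, 10 mM MgCl2, 0.015% Brij-35, 4 mM DTT, 0.05 mg/mL BSA. Incubated 1 h at rt; FRET 520/495 nm ratio, inhibition relative to DMSO-only wells.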

Compound | pIC50 ([1]; Homo sapiens) | pIC50 [2] | pIC50 [1]
COc1nc(C)c(-c2ccc3nc(NC(C)=O)cn3n2)cc1C(=O)NCc1cc(F)c(F)cc1OCC1CC1 [Example 284, N-{[2-(cyclopropylmethoxy)-4,5-difluorophenyl]methyl}-5-{2-acetamidoimidazo[1,2-b]pyridazin-6-yl}-2-methoxy-6-methylpyridine-3-carboxamide] | 8.30 | 8.30 | –
[2H]C([2H])([2H])Oc1ncc(-c2ccc3nc(NC(C)=O)cn3n2)cc1C(=O)NCc1cc(F)cc(F)c1OCC1CC1 [Example 55, N-{[2-(cyclopropylmethoxy)-3,5-difluorophenyl]methyl}-5-{2-acetamidoimidazo[1,2-b]pyridazin-6-yl}-2-(D3)methoxypyridine-3-carboxamide, TFA] | 8.52 | 9.00 | –
[2H]C([2H])([2H])Oc1nc(C)c(-c2ccc3nc(NC(C)=O)cn3n2)cc1C(=O)NCc1cc(F)cc(F)c1O[C@@H]1CCOC1 [Example 169, N-({3,5-difluoro-2-[(3R)-oxolan-3-yloxy]phenyl}methyl)-5-{2-acetamidoimidazo[1,2-b]pyridazin-6-yl}-2-(deutero)methoxy-6-methylpyridine-3-carboxamide] | 8.00 | 8.52 | –
COc1nc(C)c(-c2ccc3nc(NC(C)=O)cn3n2)cc1C(=O)NCc1cc(F)cc(F)c1OCC1CCC1 [Example 294, N-{[2-(cyclobutylmethoxy)-3,5-difluorophenyl]methyl}-5-{2-acetamidoimidazo[1,2-b]pyridazin-6-yl}-2-methoxy-6-methylpyridine-3-carboxamide] | 8.52 | 8.00 | –
CC(=O)Nc1cn2nc(-c3ccc(C)c(C(=O)NCC[C@H](O)c4ccc(Cl)cc4)c3)ccc2n1 [Example 398, N-[(3S)-3-(4-chlorophenyl)-3-hydroxypropyl]-5-{2-acetamidoimidazo [1,2-b]pyridazin-6-yl}-2-methylbenzamide] | 8.70 | 8.30 | –
COc1nc(C)c(-c2ccc3nc(NC(C)=O)cn3n2)cc1C(=O)NCc1ccccc1OC(C)C1CCCC1 (centres unmarked) [Example 302, N-{[2-(1-cyclopentylethoxy)phenyl]methyl}-5-{2-acetamidoimidazo[1,2-b]pyridazin-6-yl}-2-methoxy-6-methylpyridine-3-carboxamide] | – | 7.60 | 7.80
[2H]C([2H])([2H])[C@@H](NC(=O)c1c(F)ccc(-c2ccc3nc(NC(C)=O)cn3n2)c1F)c1cc(OC(F)(F)F)ccc1F [Example 380, 3-{2-acetamidoimidazo [1,2-b]pyridazin-6-yl}-2,6-difluoro-N-[(1R)-1-[2-fluoro-5-(trifluoromethoxy)phenyl](2,2,2-Â^2Hâ,f)ethyl} benzamide] | 8.05 | 8.52 | –
CC(=O)Nc1cn2nc(-c3cc(C(=O)NCc4ccccc4OCC(F)(F)F)c(C)nc3C)ccc2n1 [Example 68, 5-{2-acetamidoimidazo[1,2-b]pyridazin-6-yl}-2,6-dimethyl-N-{[2-(2,2,2-trifluoroethoxy)phenyl]methyl}pyridine-3-carboxamide] | 7.35 | 8.30 | –
COc1ncc(-c2ccc3nc(NC(C)=O)cn3n2)cc1C(=O)NCc1cc(F)cc(F)c1OC1CCCOC1 (centres unmarked) [Example 99, N-{[3,5-difluoro-2-(oxan-3-yloxy)phenyl]methyl}-5-{2-acetamidoimidazo[1,2-b]pyridazin-6-yl}-2-methoxypyridme-3-carboxamide] | – | 8.22 | 7.62
COc1ncc(-c2ccc3nc(NC(C)=O)cn3n2)cc1C(=O)NC[C@H]1C[C@@H]1c1ccc(F)cc1 [Example 161, 5-{2-acetamidoimidazo[1,2-b]pyridazin-6-yl}-N-{[(1S,2S)-2-(4-fluorophenyl)cyclopropyl]methyl}-2-methoxypyridine-3-carboxamide] | 6.51 | 6.84 | –
N-{[3,5-difluoro-2-(oxan-4- yloxy)phenyl](deutero)methyl}- 5-{2-acetamidoimidazo[1,2-b] pyridazin-6-yl}- 2-methylpyridine- 3-carboxamide [Example 192] | – | 8.52 | 8.30
COc1nc(C)c(-c2ccc3nc(NC(C)=O)cn3n2)cc1C(=O)NCc1cc(OC(F)(F)F)ccc1F [Example 311, 5-{2-acetamidoimidazo[1,2-b]pyridazin-6-yl}-N-{[2-fluoro-5-(trifluoromethoxy)phenyl]methyl}-2-methoxy-6-methylpyridine-3-carboxamide, TFA] | – | 8.22 | 8.40
COc1ncc(-c2ccc3nc(NC(C)=O)cn3n2)cc1C(=O)NCc1cccc(F)c1OC(C)C1CC1 (centres unmarked) [Example 134, N-{[2-(1-cyclopropylethoxy)-3-fluorophenyl]methyl}-5-{2-acetamidoimidazo[1,2-b]pyridazin-6-yl}-2-methoxypyridine-3-carboxamide] | – | 7.74 | 7.55
[2H]C([2H])([2H])Oc1nc(C)c(-c2ccc3nc(NC(C)=O)cn3n2)cc1C(=O)NCc1cc(F)cc(F)c1OC([2H])([2H])C1CC1 [Example 174, N-({2-[cyclopropyl(deutero)methoxy]-3,5-difluorophenyl}methyl)-5-{2-acetamidoimidazo[1,2-b]pyridazin-6-yl}-2-(deutero)methoxy-6-methylpyridine-3-carboxamide] | 9.00 | 8.52 | –
CC(=O)Nc1cn2nc(-c3cc(C(=O)NCc4cc(F)cc(F)c4OC4CCOC(C)C4)c(C)nc3C)ccc2n1 (centres unmarked) [Example 62, N-({3,5-difluoro-2-[(2-methyloxan-4-yl)oxy]phenyl}methyl)-5-{2-acetamidoimidazo[1,2-b]pyridazin-6-yl}-2,6-dimethylpyridine-3-carboxamide] | 7.54 | 7.96 | –
CC(=O)Nc1cn2nc(-c3cnc(C)c(C(=O)NCc4cccc(OC(F)(F)F)c4)c3)ccc2n1 [Example 221, 5-{2-acetamidoimidazo[1,2-b]pyridazin-6-yl}-2-methyl-N-{[3-(trifluoromethoxy)phenyl]methyl}pyridine-3-carboxamide, TFA] | 7.28 | 7.31 | –
COc1ncc(-c2ccc3nc(NC(C)=O)cn3n2)cc1C(=O)NCc1cc(C(F)(F)F)ccc1Cl [Example 147, N-{[2-chloro-5-(trifluoromethyl)phenyl]methyl}-5-{2-acetamidoimidazo[1,2-b]pyridazin-6-yl}-2-methoxypyridine-3-carboxamide] | 7.43 | 7.02 | –
[2H]C([2H])([2H])[C@@H](NC(=O)c1cc(-c2ccc3nc(NC(C)=O)cn3n2)cnc1C)c1cc(OC(F)(F)F)ccc1F [Example 199, 5-{2-acetamidoimidazo[1,2-b]pyridazin-6-yl}-N-[(1R)-1-[2-fluoro-5-(trifluoromethoxy)phenyl](2,2,2-deutero)ethyl]-2-methylpyridine-3-carboxamide] | 7.77 | 7.89 | –
CC(=O)Nc1cn2nc(-c3ccc(C)c(C(=O)NCc4cc(F)ccc4-c4cnn(C)c4)c3)ccc2n1 [Example 403, 5-{2-acetamidoimidazo [1,2-b]pyridazin-6-yl}-N-{[5-fluoro-2-(1-methyl-1H-pyrazol-4-yl)phenyl]methyl}-2-methylbenzamide] | 6.58 | 7.17 | –
COc1ncc(-c2ccc3nc(NC(C)=O)cn3n2)cc1C(=O)NCc1cccc(F)c1OC(C)C1CC1 (centres unmarked) [Example 144, N-{[2-(1-cyclopropylethoxy)-3-fluorophenyl]methyl}-5-{2-acetamidoimidazo[1,2-b]pyridazin-6-yl}-2-methoxypyridine-3-carboxamide] | – | 8.22 | 8.22
CC(=O)Nc1cn2nc(-c3ccc(Cl)c(C(=O)NCC[C@@H](O)c4ccc(Cl)cc4)c3)ccc2n1 [Example 386, 2-chloro-N-[(3R)-3-(4-chlorophenyl)-3-hydroxypropyl]-5-{2-acetamidoimidazo [1,2-b]pyridazin-6-yl}benzamide] | 7.89 | 8.30 | –
[2H]C([2H])([2H])[C@@H](NC(=O)c1cc(-c2ccc3nc(NC(C)=O)cn3n2)c(C)nc1C)c1cc(OC(F)(F)F)ccc1F [Example 70, 5-{2-acetamidoimidazo[1,2-b]pyridazin-6-yl}-N-[(1R)-1-[2-fluoro-5-(trifluoromethoxy)phenyl](2,2,2-deutero)ethyl]-2,6-dimethylpyridine-3-carboxamide] | 8.05 | 8.05 | –
[2H]C([2H])([2H])[C@@H](NC(=O)c1cc(-c2ccc3nc(NC(C)=O)cn3n2)cnc1C)c1cc(C(F)(F)F)ccc1F [Example 197, 5-{2-acetamidoimidazo[1,2-b]pyridazin-6-yl}-N-[(1R)-1-[2-fluoro-5-(trifluoromethyl)phenyl](2,2,2-deutero)ethyl]-2-methylpyridine-3-carboxamide] | 7.64 | 7.14 | –
Cc1ncc(-c2ccc3nc(NC(=O)CN4CC(F)(F)C4)cn3n2)cc1C(=O)N[C@H](C)c1cc(OC(F)(F)F)ccc1F [Example 335, 5-{2-[2-(3,3-difluoroazetidin-1-yl)acetamido]-imidazo[1,2-b]pyridazin-6-yl}-N-[(1R)-1-[2-fluoro-5-(trifluoromethoxy)-phenyl]ethyl]-2-methylpyridine-3-carboxamide] | 8.05 | 7.55 | –
[2H]C([2H])([2H])Oc1nc(C)c(-c2ccc3nc(NC(C)=O)cn3n2)cc1C(=O)NCc1cc(F)cc(F)c1OC1CCOC(C)C1 (centres unmarked) [Example 172, N-({3,5-difluoro-2-[(2-methyloxan-4-yl)oxy]phenyl}methyl)-5-{2-acetamidoimidazo[1,2-b]pyridazin-6-yl}-2-(deutero)methoxy-6-methylpyridine-3-carboxamide] | 7.80 | 7.82 | –
